# Starred links: 1 amine or outer side, 2 acyl side, 3 side chain; linkers in the order of their positions; H or OH if unused. Non-standard residues stand in square brackets, D forms with d. Residues, ends and D or L forms follow the SMILES beside them. Groups on a side chain read outwards from the residue. *: point of attachment. γGlu = O=C(O)[C@H](CCC(=O)[*:2])N[*:1]; Palmitoyl = CCCCCCCCCCCCCCCC(=O)*; Ac3c = NC1(C(=O)O)CC1
# Molecular target: T1, human glucagon-like peptide 1 receptor (GLP-1R) (Homo sapiens, UniProt P43220)
# T1 construct: expressed in transfected cells
# Assay: GLP-1 receptor efficacy assay (cAMP AlphaScreen, CHO cells)
# Assay type: cell-based
# Details: EC50 [GLP-1R] / EC50 [Glucagon-R], human receptors in CHO-K1
# Procedure: The mammalian expression vectors encoding the Glucagon-R or the GLP-1-R were transfected into Chinese hamster ovary (CHO) cells by the Attractene method. Stably expressing clones were obtained by Zeocin selection (250 μg/mL) upon limited dilution of cells resistant to the selection pressure. […] One Glucagon-R expressing clone and one GLP-1-R expressing clone were chosen for compound profiling.
# CHO cells expressing the human Glucagon-R, or human GLP-1-R were seeded 24 hours prior to the assay at 30,000 cells per well in 96-well microtiter plates in culture in 100 μl growth medium. On the day of analysis, growth medium was removed and the cells were washed once with 200 μl of assay buffer (Krebs-Ringer-buffer—KRBH). The buffer was removed and the cells were incubated for 15 min at room temperature in 10 μl KRBH (KRBH+10 mM HEPES, 5 mM NaHCO3, 0.1% (V/V) BSA) with 0.1 mM IBMX in deionized water containing increasing concentrations of test peptides. The reaction was stopped by the addition of lysis buffer (0.1% w/v BSA, 5 mM HEPES, 0.3% v/v Tween-20). After cell lysis for 10 min at room temperature, lysates were transferred to 384-well plates and 10 μl of acceptor/donorbead mixture as contained in the AlphaScreen™ cAMP Functional Assay Kit was added. After one hour of incubation at room temperature in the dark, the cAMP content was determined applying the AlphaScreen™ cAMP Functional Assay Kit from Perkin-Elmer according to manufacturer instructions. […] The GLP-1/glucagon ratio is calculated as defined earlier.
# T1 sequence (P43220 24-463): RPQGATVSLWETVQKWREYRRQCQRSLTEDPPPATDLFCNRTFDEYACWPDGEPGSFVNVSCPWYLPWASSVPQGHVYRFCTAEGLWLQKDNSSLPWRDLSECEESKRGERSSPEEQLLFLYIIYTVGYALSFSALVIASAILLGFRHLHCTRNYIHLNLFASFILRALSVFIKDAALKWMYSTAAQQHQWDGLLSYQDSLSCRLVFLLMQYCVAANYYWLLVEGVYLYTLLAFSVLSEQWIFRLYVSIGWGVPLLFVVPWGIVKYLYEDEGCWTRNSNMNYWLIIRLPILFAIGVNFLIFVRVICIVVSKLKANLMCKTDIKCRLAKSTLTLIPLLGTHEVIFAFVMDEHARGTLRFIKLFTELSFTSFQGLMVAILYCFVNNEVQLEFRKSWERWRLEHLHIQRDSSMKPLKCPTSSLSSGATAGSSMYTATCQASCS
row,Ratio GLP-1/Glucagon,Structure (SMILES)
1,2.26,CCCCCCCCCCCCCCCC(=O)N[C@@H](CCC(=O)NCCCC[C@H](NC(=O)[C@H](CO)NC(=O)[C@H](CC(=O)O)NC(=O)[C@H](CC(C)C)NC(=O)[C@H](Cc1ccc(O)cc1)NC(=O)[C@H](CCCCN)NC(=O)[C@H](CO)NC(=O)[C@H](Cc1ccc(O)cc1)NC(=O)[C@H](CC(=O)O)NC(=O)[C@H](CO)NC(=O)[C@@H](NC(=O)[C@H](Cc1ccccc1)NC(=O)[C@@H](NC(=O)CNC(=O)[C@H](CCC(N)=O)NC(=O)[C@H](C)NC(=O)[C@@H](N)Cc1c[nH]cn1)[C@@H](C)O)[C@@H](C)O)C(=O)N[C@@H](C)C(=O)N[C@@H](C)C(=O)N[C@@H](Cc1c[nH]cn1)C(=O)N[C@@H](CC(=O)O)C(=O)N[C@@H](Cc1ccccc1)C(=O)N[C@H](C(=O)N[C@@H](CCC(=O)O)C(=O)N[C@@H](Cc1c[nH]c2ccccc12)C(=O)N[C@@H](CC(C)C)C(=O)N[C@@H](CC(C)C)C(=O)N[C@@H](CO)C(=O)N[C@@H](C)C(N)=O)C(C)C)C(=O)O [Compound 1]
2,3.83,CCCCCCCCCCCCCCCC(=O)N[C@@H](CCC(=O)NCCCC[C@H](NC(=O)[C@H](CO)NC(=O)[C@H](CC(=O)O)NC(=O)[C@H](CC(C)C)NC(=O)[C@H](Cc1ccc(O)cc1)NC(=O)[C@H](CCCCN)NC(=O)[C@H](CO)NC(=O)[C@H](Cc1ccc(O)cc1)NC(=O)[C@H](CC(=O)O)NC(=O)[C@H](CO)NC(=O)[C@@H](NC(=O)[C@H](Cc1ccccc1)NC(=O)[C@@H](NC(=O)CNC(=O)[C@H](CCC(N)=O)NC(=O)[C@H](CO)N(C)C(=O)[C@@H](N)Cc1c[nH]cn1)[C@@H](C)O)[C@@H](C)O)C(=O)N[C@@H](C)C(=O)N[C@@H](C)C(=O)N[C@@H](Cc1c[nH]cn1)C(=O)N[C@@H](CC(=O)O)C(=O)N[C@@H](Cc1ccccc1)C(=O)N[C@H](C(=O)N[C@@H](CCC(=O)O)C(=O)N[C@@H](Cc1c[nH]c2ccccc12)C(=O)N[C@@H](CC(C)C)C(=O)N[C@@H](CC(C)C)C(=O)N[C@@H](CO)C(=O)N[C@@H](C)C(N)=O)C(C)C)C(=O)O [Compound 2]
3,0.75,CCCCCCCCCCCCCCCC(=O)N[C@@H](CCC(=O)NCCCC[C@H](NC(=O)[C@H](CO)NC(=O)[C@H](CC(=O)O)NC(=O)[C@H](CC(C)C)NC(=O)[C@H](Cc1ccc(O)cc1)NC(=O)[C@H](CCCCN)NC(=O)[C@H](CO)NC(=O)[C@H](Cc1ccc(O)cc1)NC(=O)[C@H](CC(=O)O)NC(=O)[C@H](CO)NC(=O)[C@@H](NC(=O)[C@H](Cc1ccccc1)NC(=O)[C@@H](NC(=O)CNC(=O)[C@H](Cc1c[nH]cn1)NC(=O)[C@H](C)NC(=O)[C@@H](N)Cc1c[nH]cn1)[C@@H](C)O)[C@@H](C)O)C(=O)N[C@@H](C)C(=O)N[C@@H](C)C(=O)N[C@@H](Cc1c[nH]cn1)C(=O)N[C@@H](CC(=O)O)C(=O)N[C@@H](Cc1ccccc1)C(=O)N[C@H](C(=O)N[C@@H](CCC(=O)O)C(=O)N[C@@H](Cc1c[nH]c2ccccc12)C(=O)N[C@@H](CC(C)C)C(=O)N[C@@H](CC(C)C)C(=O)N[C@@H](CO)C(=O)N[C@@H](C)C(N)=O)C(C)C)C(=O)O [Compound 6] (H-HAHGTFTSDYSKYLDSK([γGlu-Palmitoyl])AAHDFVEWLLSA-NH2)
4,0.58,CCCCCCCCCCCCCCCC(=O)N[C@@H](CCC(=O)NCCCC[C@H](NC(=O)[C@H](CO)NC(=O)[C@H](CC(=O)O)NC(=O)[C@H](CC(C)C)NC(=O)[C@H](Cc1ccc(O)cc1)NC(=O)[C@H](CCCCN)NC(=O)[C@H](CO)NC(=O)[C@H](Cc1ccc(O)cc1)NC(=O)[C@H](CC(=O)O)NC(=O)[C@H](CO)NC(=O)[C@@H](NC(=O)[C@H](Cc1ccccc1)NC(=O)[C@@H](NC(=O)CNC(=O)[C@H](Cc1c[nH]cn1)NC(=O)[C@@H](C)NC(=O)[C@@H](N)Cc1c[nH]cn1)[C@@H](C)O)[C@@H](C)O)C(=O)N[C@@H](C)C(=O)N[C@@H](C)C(=O)N[C@@H](Cc1c[nH]cn1)C(=O)N[C@@H](CC(=O)O)C(=O)N[C@@H](Cc1ccccc1)C(=O)N[C@H](C(=O)N[C@@H](CCC(=O)O)C(=O)N[C@@H](Cc1c[nH]c2ccccc12)C(=O)N[C@@H](CC(C)C)C(=O)N[C@@H](CC(C)C)C(=O)N[C@@H](CO)C(=O)N[C@@H](C)C(N)=O)C(C)C)C(=O)O [Compound 7] (H-H[dA]HGTFTSDYSKYLDSK([γGlu-Palmitoyl])AAHDFVEWLLSA-NH2)
5,0.13,CCCCCCCCCCCCCCCC(=O)N[C@@H](CCC(=O)NCCCC[C@H](NC(=O)[C@H](CO)NC(=O)[C@H](CC(=O)O)NC(=O)[C@H](CC(C)C)NC(=O)[C@H](Cc1ccc(O)cc1)NC(=O)[C@H](CCCCN)NC(=O)[C@H](CO)NC(=O)[C@H](Cc1ccc(O)cc1)NC(=O)[C@H](CC(=O)O)NC(=O)[C@H](CO)NC(=O)[C@@H](NC(=O)[C@H](Cc1ccccc1)NC(=O)[C@@H](NC(=O)CNC(=O)[C@H](Cc1c[nH]cn1)NC(=O)C1(NC(=O)[C@@H](N)Cc2c[nH]cn2)CC1)[C@@H](C)O)[C@@H](C)O)C(=O)N[C@@H](C)C(=O)N[C@@H](C)C(=O)N[C@@H](Cc1c[nH]cn1)C(=O)N[C@@H](CC(=O)O)C(=O)N[C@@H](Cc1ccccc1)C(=O)N[C@H](C(=O)N[C@@H](CCC(=O)O)C(=O)N[C@@H](Cc1c[nH]c2ccccc12)C(=O)N[C@@H](CC(C)C)C(=O)N[C@@H](CC(C)C)C(=O)N[C@@H](CO)C(=O)N[C@@H](C)C(N)=O)C(C)C)C(=O)O [Compound 8] (H-H[Ac3c]HGTFTSDYSKYLDSK([γGlu-Palmitoyl])AAHDFVEWLLSA-NH2)

# Same assay, conditions: cAMP formation, CHO cells expressing human GLP-1-R; read-out: EC50 hGLP-1R CHO-K1
row,EC50 [nM],Structure (SMILES)
1,0.14,CCCCCCCCCCCCCCCC(=O)N[C@@H](CCC(=O)NCCCC[C@H](NC(=O)[C@H](CCC(=O)O)NC(=O)[C@H](CC(=O)O)NC(=O)[C@H](CC(C)C)NC(=O)[C@H](Cc1ccc(O)cc1)NC(=O)[C@H](CCCCN)NC(=O)[C@H](CO)NC(=O)[C@H](Cc1ccc(O)cc1)NC(=O)[C@H](CC(=O)O)NC(=O)[C@H](CO)NC(=O)[C@@H](NC(=O)[C@H](Cc1ccccc1)NC(=O)[C@@H](NC(=O)CNC(=O)[C@H](CCC(N)=O)NC(=O)[C@H](C)NC(=O)[C@@H](N)Cc1c[nH]cn1)[C@@H](C)O)[C@@H](C)O)C(=O)N[C@@H](C)C(=O)N[C@@H](C)C(=O)N[C@@H](CCCCN)C(=O)N[C@@H](CC(=O)O)C(=O)N[C@@H](Cc1ccccc1)C(=O)N[C@H](C(=O)N[C@@H](CCC(=O)O)C(=O)N[C@@H](Cc1c[nH]c2ccccc12)C(=O)N[C@@H](CC(C)C)C(=O)N[C@@H](CCC(=O)O)C(=O)N[C@@H](CO)C(=O)N[C@@H](C)C(N)=O)[C@@H](C)CC)C(=O)O [Compound 11]
2,0.14,CCCCCCCCCCCCCCCC(=O)N[C@@H](CCC(=O)NCCCC[C@H](NC(=O)[C@H](CCC(=O)O)NC(=O)[C@H](CC(=O)O)NC(=O)[C@H](CC(C)C)NC(=O)[C@H](Cc1ccc(O)cc1)NC(=O)[C@H](CCCCN)NC(=O)[C@H](CO)NC(=O)[C@H](Cc1ccc(O)cc1)NC(=O)[C@H](CC(=O)O)NC(=O)[C@H](CO)NC(=O)[C@@H](NC(=O)[C@H](Cc1ccccc1)NC(=O)[C@@H](NC(=O)CNC(=O)[C@H](CCC(N)=O)NC(=O)[C@@H](C)NC(=O)[C@@H](N)Cc1c[nH]cn1)[C@@H](C)O)[C@@H](C)O)C(=O)N[C@@H](C)C(=O)N[C@@H](C)C(=O)N[C@@H](CCCCN)C(=O)N[C@@H](CC(=O)O)C(=O)N[C@@H](Cc1ccccc1)C(=O)N[C@H](C(=O)N[C@@H](CCC(=O)O)C(=O)N[C@@H](Cc1c[nH]c2ccccc12)C(=O)N[C@@H](CC(C)C)C(=O)N[C@@H](CCC(=O)O)C(=O)N[C@@H](CO)C(=O)N[C@@H](C)C(N)=O)[C@@H](C)CC)C(=O)O [Compound 12]

# Source: US9988429B2, “Glucagon analogues” (Zealand Pharma A/S, priority 2013, dated 2018)
